In US20100285959A1, “HERBICIDAL MIXTURES” (priority 2006, published 2010):

Assays:
[1] = system: corn (ZEAMD); experiment: Test 1 field trial, preemergence; type: in vivo, Zea mays ssp. indentata; details: hybrid Pioneer 34N43, corn (Zea mays ssp. indentata), in vivo
Text: (§1) Corn seeds (hybrid ‘Pioneer 34N43’) were planted in mid spring season, 3.8 cm deep in a silt loam soil having 4.6% organic matter and a pH of 6. Plots were 10.7 m long by 1.5 m wide with rows spaced 76 cm apart. Seeds were spaced 18 cm apart within the rows. The field was managed using conventional tillage practices. […] Results are summarized in Table 1 and are the means of the three replicates. […] Colby's Equation (Colby, S. R. “Calculating Synergistic and Antagonistic Responses of Herbicide Combinations,” Weeds, 15(1), pp 20-22 (1967)) calculates the expected additive effect of herbicidal mixtures, and for two active ingredients is of the form:
(§2) Pa+b=Pa+Pb−(PaPb/100) • wherein Pa+b is the percentage effect of the mixture expected from additive contribution of the individual components, • Pa is the observed percentage effect of the first active ingredient at the same use rate as in the mixture, and • Pb is the observed percentage effect of the second active ingredient at the same use rate as in the mixture.

[2] = system: Surinam grass (BRADC); experiment: Test 11 field trial, preemergence; type: in vivo, Brachiaria decumbens; parameters: scale not given here; details: alone or + atrazine 1500 or metolachlor 2500
Text: (§3) Corn seeds (hybrid ‘Pioneer 3041’) were planted in mid spring season, 5 cm deep in a clay soil having 2.6% organic matter and a pH of 5.6. Plots were 8 m long by 1.5 m wide with rows spaced 80 cm apart. Seeds were spaced 15 cm apart within the rows. The field was managed using conventional tillage practices. […] Treatments consisted of Compound 2 or
(§4) Goosegrass was not evaluated 16 or 91 days after application.

[3] = system: redroot pigweed (AMARE); experiment: Test 1 field trial, preemergence; type: in vivo, Amaranthus retroflexus
Text: as §1, §2

[4] = system: giant foxtail (SETFA); experiment: Test 8 field trial, preemergence; type: in vivo, Setaria faberi
Text: (§5) Corn seeds (hybrid ‘Pioneer 31G96’) were planted in mid spring season, 3.8 cm deep in a clay loam soil having 2% organic matter and a pH of 6.6. Plots were 6.1 m long by 3.0 m wide with rows spaced 76 cm apart. Seeds were spaced 15 cm apart within the rows. The field was managed using conventional tillage practices. […] A few of the weed species could not be evaluated at every timing. […] Results are the means of the three replicates.

[5] = system: common lambsquarters (CHEAL); experiment: Test 8 field trial, preemergence; type: in vivo, Chenopodium album
Text: as §5

[6] = system: Pennsylvania smartweed (POLPY); experiment: Test 6 field trial, postemergence; type: in vivo, Polygonum pensylvanicum
Text: Corn seeds (hybrid ‘Pioneer 35Y62’) were planted in mid spring season, 3.8 cm deep in a silt loam soil having 4% organic matter and a pH of 5.8. Plots were 10.7 m long by 1.5 m wide with rows spaced 76 cm apart. Seeds were spaced 18 cm apart within the rows. The field was managed using conventional tillage practices. […] All treatments included a surfactant except glufosinate treatments, both alone and in combination. […] Results are summarized in Table 6 and are the means of the three replicates.

[7] = system: yellow foxtail (SETLU); experiment: Test 5 field trial, postemergence; type: in vivo, Setaria glauca
Text: (§6) Corn seeds (hybrid ‘Pioneer 38H69’) were planted in mid spring season, 5.1 cm deep in a silty clay loam soil having 3% organic matter and a pH of 6.5. Plots were 9.1 m long by 3.0 m wide with rows spaced 76 cm apart. The field was managed using conventional tillage practices. […] All treatments included a surfactant except glufosinate treatments, both alone and in combination. […] Results are summarized in Table 5 and are the means of the three replicates.

[8] = system: common cocklebur (XANST); experiment: Test 10 field trial, preemergence; type: in vivo, Xanthium strumarium ssp. strumarium; details: 28 DAA
Text: Corn seeds (hybrid ‘Pioneer 33P65 RR’) were planted in mid spring season, 2.5 cm deep in a silt loam soil. Plots were 9.1 m long by 3.0 m wide with rows spaced 76 cm apart. The field was managed using conventional tillage practices. […] Results are the means of the three replicates.

[9] = system: Brazilian crabgrass (DIGHO); experiment: Test 11 field trial, preemergence; type: in vivo, Digitaria horizontalis; parameters: scale not given here; details: alone or + atrazine 1500 or metolachlor 2500
Text: as §3, §4

[10] = system: common ragweed (AMBEL); experiment: Test 8 field trial, preemergence; type: in vivo, Ambrosia artemisiifolia
Text: as §5

[11] = system: common ragweed (AMBEL); experiment: Test 5 field trial, postemergence; type: in vivo, Ambrosia artemisiifolia
Text: as §6

[12] = system: large crabgrass (DIGSA); experiment: Test 5 field trial, postemergence; type: in vivo, Digitaria sanguinalis
Text: as §6

[13] = system: jimsonweed (DATST); experiment: Test 8 field trial, preemergence; type: in vivo, Datura stramonium
Text: as §5

[14] = system: field pennycress (THLAR); experiment: Test 5 field trial, postemergence; type: in vivo, Thlaspi arvense
Text: as §6

[15] = 16 DAA, Cpd 2/Cpd 1 at 62 g a.i./ha
[16] = 16 DAA, Cpd 2/Cpd 1 at 125 g a.i./ha
[17] = 30 DAA, Cpd 2/Cpd 1 at 62 g a.i./ha
[18] = 30 DAA, Cpd 2/Cpd 1 at 125 g a.i./ha
[19] = 44 DAA, Cpd 2/Cpd 1 at 62 g a.i./ha
[20] = 44 DAA, Cpd 2/Cpd 1 at 125 g a.i./ha
[21] = 62 DAA, Cpd 2/Cpd 1 at 62 g a.i./ha
[22] = 62 DAA, Cpd 2/Cpd 1 at 125 g a.i./ha
[23] = 91 DAA, Cpd 2/Cpd 1 at 62 g a.i./ha
[24] = 91 DAA, Cpd 2/Cpd 1 at 125 g a.i./ha
[25] = 56 DAA, g a.i./ha: Cpd 2 50, S-Metolachlor 1870
[26] = 56 DAA, g a.i./ha: Cpd 2 100, Atrazine 1680, S-Metolachlor 1870
[27] = 56 DAA, g a.i./ha: Cpd 2 150, S-Metolachlor 1870
[28] = 19 DAA, g a.i./ha: Cpd 2 50, S-Metolachlor 1870
[29] = 19 DAA, g a.i./ha: Cpd 2 100, Atrazine 1680, S-Metolachlor 1870
[30] = 19 DAA, g a.i./ha: Cpd 2 150, S-Metolachlor 1870
[31] = 29 DAA, g a.i./ha: Cpd 2 50, S-Metolachlor 1870
[32] = 29 DAA, g a.i./ha: Cpd 2 100, Atrazine 1680, S-Metolachlor 1870
[33] = 29 DAA, g a.i./ha: Cpd 2 150, S-Metolachlor 1870
[34] = 16 DAA, Cpd 2 30 g a.i./ha alone or with glufosinate 470 or glyphosate 1120
[35] = 16 DAA, Cpd 2 60 g a.i./ha alone or with atrazine 1120, glufosinate 470 or glyphosate 1120
[36] = 31 DAA, Cpd 2 30 g a.i./ha alone or with glufosinate 470 or glyphosate 1120
[37] = 31 DAA, Cpd 2 60 g a.i./ha alone or with atrazine 1120, glufosinate 470 or glyphosate 1120

## COC(=O)c1nc(C2CC2)nc(N)c1Cl [Compound 2, methyl 6-amino-5-chloro-2-cyclopropyl-4-pyrimidinecarboxylate]
[1]; 28 days after application
  ZEAMD Obs: 0
[1]; 56 days after application
  ZEAMD Obs: 0
[2]; [15]
  BRADC Obs: 40
[2]; [16]
  BRADC Obs: 60
[2]; [17]
  BRADC Obs: 40
[2]; [18]
  BRADC Obs: 70
[2]; [19]
  BRADC Obs: 0
[2]; [20]
  BRADC Obs: 60
[2]; [21]
  BRADC Obs: 0
[2]; [22]
  BRADC Obs: 0
[2]; [23]
  BRADC Obs: 0
[2]; [24]
  BRADC Obs: 0
[3]; 28 DAA, g a.i./ha: Cpd 2 50, S-Metolachlor 1870
  AMARE Obs: 0
[3]; 28 DAA, g a.i./ha: Cpd 2 100, Atrazine 1680, S-Metolachlor 1870
  AMARE Obs: 7
[3]; 28 DAA, g a.i./ha: Cpd 2 150, S-Metolachlor 1870
  AMARE Obs: 58
[3]; [25]
  AMARE Obs: 7
[3]; [26]
  AMARE Obs: 55
[3]; [27]
  AMARE Obs: 100
[4]; [28]
  SETFA Obs: 33%
[4]; [29]
  SETFA Obs: 40%
[4]; [30]
  SETFA Obs: 43%
[4]; [31]
  SETFA Obs: 32%
[4]; [32]
  SETFA Obs: 42%
[4]; [33]
  SETFA Obs: 47%
[4]; [25]
  SETFA Obs: 8%
[4]; [26]
  SETFA Obs: 7%
[4]; [27]
  SETFA Obs: 17%
[5]; [28]
  CHEAL Obs: 75%
[5]; [29]
  CHEAL Obs: 100%
[5]; [30]
  CHEAL Obs: 100%
[5]; [25]
  CHEAL Obs: 68%
[5]; [26]
  CHEAL Obs: 100%
[5]; [27]
  CHEAL Obs: 100%
[6]; 14 DAA, 30 g a.i./ha
  POLPY Obs: 20%
[6]; 14 DAA, 60 g a.i./ha
  POLPY Obs: 40%
[6]; 28 DAA, 30 g a.i./ha
  POLPY Obs: 20%
[6]; 28 DAA, 60 g a.i./ha
  POLPY Obs: 40%
[7]; [34]
  SETLU Obs: 2%
[7]; [35]
  SETLU Obs: 0%
[7]; [36]
  SETLU Obs: 0%
[7]; [37]
  SETLU Obs: 2%
[8]; g a.i./ha: Cpd 2 50, S-Metolachlor 1870
  XANST Obs: 10%
[8]; g a.i./ha: Cpd 2 100, Atrazine 1680, S-Metolachlor 1870
  XANST Obs: 7%
[8]; g a.i./ha: Cpd 2 150, S-Metolachlor 1870
  XANST Obs: 27%
[9]; [15]
  DIGHO Obs: 0
[9]; [16]
  DIGHO Obs: 40
[9]; [17]
  DIGHO Obs: 0
[9]; [18]
  DIGHO Obs: 40
[9]; [19]
  DIGHO Obs: 0
[9]; [20]
  DIGHO Obs: 0
[9]; [21]
  DIGHO Obs: 0
[9]; [22]
  DIGHO Obs: 0
[9]; [23]
  DIGHO Obs: 0
[9]; [24]
  DIGHO Obs: 0
[10]; [28]
  AMBEL Obs: 36%
[10]; [29]
  AMBEL Obs: 73%
[10]; [30]
  AMBEL Obs: 83%
[10]; [31]
  AMBEL Obs: 65%
[10]; [32]
  AMBEL Obs: 88%
[10]; [33]
  AMBEL Obs: 96%
[10]; [25]
  AMBEL Obs: 52%
[10]; [26]
  AMBEL Obs: 90%
[10]; [27]
  AMBEL Obs: 97%
[11]; [34]
  AMBEL Obs: 85%
[11]; [35]
  AMBEL Obs: 95%
[11]; [36]
  AMBEL Obs: 83%
[11]; [37]
  AMBEL Obs: 99%
[12]; [34]
  DIGSA Obs: 0%
[12]; [35]
  DIGSA Obs: 0%
[12]; [36]
  DIGSA Obs: 0%
[12]; [37]
  DIGSA Obs: 2%
[13]; [28]
  DATST Obs: 33%
[13]; [29]
  DATST Obs: 52%
[13]; [30]
  DATST Obs: 65%
[13]; [31]
  DATST Obs: 45%
[13]; [32]
  DATST Obs: 63%
[13]; [33]
  DATST Obs: 85%
[13]; [25]
  DATST Obs: 65%
[13]; [26]
  DATST Obs: 90%
[13]; [27]
  DATST Obs: 100%
[14]; [34]
  THLAR Obs: 37%
[14]; [35]
  THLAR Obs: 42%
[14]; [36]
  THLAR Obs: 0%
[14]; [37]
  THLAR Obs: 2%
